Measurements from the NIST ThermoML archive (doi:10.1021/je800713c).

Experiments:
[1] = mn = molality of the nth substance listed, in mol/kg; details: 298.15 K, 101 kPa, Liquid
[2] = cn = amount concentration of the nth substance listed, in mol/dm3; details: 298.15 K, 101 kPa, Liquid, Alternating current cell with electrodes

CC(C)C[C@H](NC(=O)CN)C(=O)O [glycyl-L-leucine] + O
[1], Vibrating tube method
Details	mass density [kg/m3]
m1 = 0.01944	1000.64
m1 = 0.02958	1001.13
m1 = 0.0395	1001.61
m1 = 0.04928	1002.08
m1 = 0.057	1002.44
m1 = 0.07128	1003.12
m1 = 0.07696	1003.39
m1 = 0.09125	1004.06

CC(C)[C@H](NC(=O)CN)C(=O)O [glycyl-L-valine] + O
[1], Vibrating tube method
Details	mass density [kg/m3]
m1 = 0.02261	1000.88
m1 = 0.03982	1001.76
m1 = 0.06223	1002.9
m1 = 0.07858	1003.73
m1 = 0.1017	1004.89
m1 = 0.1513	1007.38
m1 = 0.1799	1008.77

NCC(=O)NCC(=O)O [glycylglycine] + O
[1], Vibrating tube method
Details	mass density [kg/m3]
m1 = 0.06033	1003.05
m1 = 0.08146	1004.21
m1 = 0.1018	1005.33
m1 = 0.1481	1007.84
m1 = 0.2504	1013.33
m1 = 0.2965	1015.78
m1 = 0.3421	1018.08

CCCC(=O)[O-].[Na+] [sodium butyrate] + O
Details	mass density [kg/m3]	molar conductivity [S·m2/mol]
[1], m1 = 0.5	1016.31	–
[1], m1 = 1	1033.73	–
[1], m1 = 1.5	1049.36	–
[1], m1 = 2	1064.03	–
[2], c1 = 0.0003234	–	0.00796
[2], c1 = 0.001116	–	0.00795
[2], c1 = 0.001273	–	0.00794
[2], c1 = 0.001488	–	0.00792
[2], c1 = 0.00188	–	0.00788
[2], c1 = 0.002076	–	0.00787
[2], c1 = 0.00243	–	0.00784
[2], c1 = 0.003167	–	0.00766
[2], c1 = 0.006298	–	0.00753
[2], c1 = 0.008849	–	0.00744
[2], c1 = 0.01124	–	0.00737
[2], c1 = 0.01353	–	0.00732
[2], c1 = 0.0155	–	0.00727
[2], c1 = 0.01721	–	0.00724
[2], c1 = 0.01916	–	0.0072
[2], c1 = 0.02091	–	0.00717
[2], c1 = 0.02284	–	0.00714
[2], c1 = 0.02481	–	0.0071
[2], c1 = 0.02647	–	0.00707

O [water] + CC(C)C[C@H](NC(=O)CN)C(=O)O
Details	mass density [kg/m3]
[1], Vibrating tube method, m2 = 0	999.705

O [water] + CC(C)[C@H](NC(=O)CN)C(=O)O
Details	mass density [kg/m3]
[1], Vibrating tube method, m2 = 0	999.705

O [water] + NCC(=O)NCC(=O)O
Details	mass density [kg/m3]
[1], Vibrating tube method, m2 = 0	999.705
